The text below walks through data of patent publication US6455259B2, “Methods for detecting, selecting and cloning agents that degrade or promote degradation of DNA” (priority 1998, dated 2002).

Data set [1] has as its system E. coli strain MC1061. In words: Complementation of T4 denA mutant phage by bleomycin: progeny phage production. The format is cell-based. On the procedure: (§1) In this example, a T4 denA mutant phage is complemented with an antibiotic known to cause single strand breaks in DNA, bleomycin. In this example, the production of any viable progeny phage above the background will be evidence of complementation. E. coli strain MC1061, growing at 32∞ C in Luria Broth plus 0.2% glucose was treated for 60 minutes with 10 μg/ml of bleomycin, which was then removed by centrifuging the cells and re-suspending them in an equal volume of the same media. Under these treatment conditions, cell viability is reduced to about 40-50% of that at the beginning of the treatment. The cells are then allowed to grow for various amounts of time at 32∞ C. in the absence of bleomycin, at which times HU is added to 200 mM.
Phage mutant in both the denA and denB genes is added five minutes later. Unadsorbed input phage are eliminated by treating the infected cultures with anti-T4 sera added 15-20 minutes after infection. This anti-T4 sera treatment to eliminate unadsorbed input phage allows detection of a lower level of progeny phage production. However, the anti-T4 sera must be removed or it will also inactivate progeny phage. This was done by centrifuging the infected cultures 50 minutes after infection, washing the pellets with one-tenth volume of media, centrifuging again, re-suspending the culture in one volume of media and immediately causing lysis of the productive cells by the addition of chloroform.
Progeny phage production was assayed by standard methods. A control infection was also done on cells given no bleomycin treatment.

Data set [2] deals with E. coli strain MC1061. Description: Cell viability after bleomycin treatment. The following applies: 10 μg/ml bleomycin, 60 minutes, 32 C, Luria Broth plus 0.2% glucose. The format is cell-based. Here is the method:
as §1

Regarding bleomycin, the “factor increase of progeny titre over control (no Bleomycin)” value is 1300 in the data set with E. coli strain MC1061 [1] (outgrowth 0 minutes), 13000 in the data set with E. coli strain MC1061 [1] (outgrowth 20 minutes), 24000 in the data set on E. coli strain MC1061 [1] (outgrowth 40 minutes) and 45000 in the data set on E. coli strain MC1061 [1] (outgrowth 60 minutes). Further, in the data set with E. coli strain MC1061 [2], the “cell viability, relative to that at the beginning of the treatment” value was 40-50%.
